Like-named read-outs stand apart in the source and are kept apart here.
What was measured:
Assay type in all cases: cell-based
[1] = tested on: A549 cells; test: SRB assay, lung cancer cells A549
Protocol: (§1) As a comparison, omeprazole (KN510) and trimetazidine (KN713), a 3-ketoacyl CoA thiolase inhibitor, were co-treated. […] After cell inoculation, 96-well cell culture plates were incubated for 24 hours before the addition of experimental drugs. […] The cells were then incubated in a CO2 incubator for 48 hours, after which the assay was terminated by the addition of cold TCA. Cells were fixed in situ by gently adding 50 μl of cold 50% (w/v) TCA (final concentration: 10% TCA) and incubated at 4° C. for 60 min. The supernatant was discarded, and the plate was washed five times with distilled water and air dried. Sulforhodamine B (SRB) solution (100 μl) of 0.4% (w/v) in 1% acetic acid was added to each well, and the plate was left at room temperature for 10 min. After staining, unbound dye was removed by washing five times with 1% acetic acid, and the plate was air-dried. The bound dye was then solubilized with 10 mM trizma base, and the absorbance was recorded at 515 nm using an automated plate reader. […] The predicted synergistic activity of a combination of the present invention can be calculated using the Colby Equation in Equation 1 (S.R. Colby, Weeds, 1967, pp. 15, 20-22): In the present invention, the actual measure of anti-cancer activity of the combination treatment was the inhibition rate of cancer cell growth (%), and the predicted value (E) of the combination treatment was measured by substituting it into the above Colby Equation.

[2] = tested on: SK-HEP-1 cells; test: SRB assay, liver cancer cell line SK-HEP-1
Protocol: as §1

[3] = tested on: MDA-MB-231 cells; test: SRB assay, breast cancer cell line MDA-MB-231
Protocol: as §1

[4] = tested on: SF295 cells; test: SRB assay, glioblastoma cell line SF295
Protocol: as §1

[5] = tested on: DU-145 cells; test: SRB assay, prostate cancer cells DU-145
Protocol: as §1

[6] = tested on: U251 cells; test: SRB assay, glioblastoma cell line U251
Protocol: as §1

[7] = tested on: MIA PaCa-2; test: SRB assay, cancer cell growth, pancreatic cancer cell line MIA PaCa-2; details: for GI50: 48 hours, read-out: GI50 (Half maximal growth inhibition concentration)
Protocol: as §1, with “20-22): α and β are the measured anti-cancer activity of each compound alone, and E is the predicted anti-cancer activity of a mixture of α and β as a prediction.” for “20-22):”

[8] = Homo sapiens, KN510 100 μM, read-out: Inhibition rate of cancer cell growth (%) (Actual value)
[9] = Homo sapiens, KN510 200 μM, read-out: Inhibition rate of cancer cell growth (%) (Actual value)
[10] = MIA PaCa-2, Conc. 10^−5M, Table 1
[11] = MIA PaCa-2, Conc. 10^−6M, Table 1
[12] = MIA PaCa-2, Conc. 10^−7M, Table 1
[13] = MIA PaCa-2, Conc. 10^−8M, Table 1
[14] = Homo sapiens, KN714 5 μM, read-out: Inhibition rate of cancer cell growth (%) (Actual value)
[15] = Homo sapiens, KN714 10 μM, read-out: Inhibition rate of cancer cell growth (%) (Actual value)

With `COc1ccc2[nH]c([S+]([O-])Cc3ncc(C)c(OC)c3C)nc2c1` (stereo not drawn) [KN510, omeprazole] the inhibition at 100 µM [1, 8] was 44.6%, the inhibition at 200 µM [1, 9] was 69.7% and the “Cancer cell growth rate Average (%)” value ([1]; KN510 100 μM) was 55.44%. For the same molecule, the “Cancer cell growth rate Average (%)” value ([1]; KN510 200 μM) was 30.29%, the inhibition at 100 µM ([2]; Homo sapiens, SK-HEP1, KN510 100 μM, read-out: Inhibition rate of cancer cell growth (%) (Actual value)) was 46.7% and the inhibition at 200 µM ([2]; Homo sapiens, SK-HEP1, KN510 200 μM, read-out: Inhibition rate of cancer cell growth (%) (Actual value)) was 62.8%. The “Cancer cell growth rate Average (%)” value ([2]; KN510 100 μM) was 53.28%, the “Cancer cell growth rate Average (%)” value ([2]; KN510 200 μM) was 37.19% and the inhibition at 100 µM [3, 8] was 29.7%. The inhibition at 200 µM [3, 9] was 71.9%, the “Cancer cell growth rate Average (%)” value ([3]; KN510 100 μM) was 70.29% and the “Cancer cell growth rate Average (%)” value ([3]; KN510 200 μM) was 28.13%. For the same molecule, the inhibition at 100 µM ([4]; Homo sapiens, SF-295, KN510 100 μM, read-out: Inhibition rate of cancer cell growth (%) (Actual value)) was 32%, the inhibition at 200 µM ([4]; Homo sapiens, SF-295, KN510 200 μM, read-out: Inhibition rate of cancer cell growth (%) (Actual value)) was 63.5% and the “Cancer cell growth rate Average (%)” value ([4]; KN510 100 μM) was 67.98%. For the same molecule, the “Cancer cell growth rate Average (%)” value ([4]; KN510 200 μM) was 36.53%, the inhibition at 100 µM [5, 8] was 50.4% and the inhibition at 200 µM [5, 9] was 62.9%. For the same molecule, the “Cancer cell growth rate Average (%)” value ([5]; KN510 100 μM) was 49.59%, the “Cancer cell growth rate Average (%)” value ([5]; KN510 200 μM) was 37.08% and the inhibition at 100 µM ([6]; Homo sapiens, U-251, KN510 100 μM, read-out: Inhibition rate of cancer cell growth (%) (Actual value)) was 26.5%. For the same molecule, the inhibition at 200 µM ([6]; Homo sapiens, U-251, KN510 200 μM, read-out: Inhibition rate of cancer cell growth (%) (Actual value)) was 44.9%, the “Cancer cell growth rate Average (%)” value ([6]; KN510 100 μM) was 73.51% and the “Cancer cell growth rate Average (%)” value ([6]; KN510 200 μM) was 55.11%. It also gave an inhibition at 100 µM ([7]; Homo sapiens, MIA PaCa-2, MIA PaCa-2 (Example 11), KN510 100 μM, read-out: Inhibition rate of cancer cell growth (%) (Actual value)) of 30.2%, an inhibition at 200 µM ([7]; Homo sapiens, MIA PaCa-2, MIA PaCa-2 (Example 11), KN510 200 μM, read-out: Inhibition rate of cancer cell growth (%) (Actual value)) of 78.2% and an inhibition at 200 µM ([7]; Homo sapiens, MIA PaCa-2, MIA PaCa-2, Example 1-3, Table 4, KN510 200 μM, read-out: Inhibition rate of cancer cell growth (%) (Actual value)) of 74.1%. For the same molecule, the GI50 ([7]; Homo sapiens, MIA PaCa-2) was 117 µM, the “Cancer cell growth rate Average (%)” value ([7]; MIA PaCa-2 (Example 11), KN510 100 μM) was 69.78% and the “Cancer cell growth rate Average (%)” value ([7]; MIA PaCa-2 (Example 11), KN510 200 μM) was 21.75%. For the same molecule, the “Cancer cell growth rate Average (%)” value ([7]; MIA PaCa-2, Conc. 10^−3M, Table 1) was −17.07%, the “Cancer cell growth rate Average (%)” value ([7]; MIA PaCa-2, Conc. 10^−4M, Table 1) was 68.78% and the “Cancer cell growth rate Average (%)” value [7, 10] was 94.56%. The “Cancer cell growth rate Average (%)” value [7, 11] was 93.66%, the “Cancer cell growth rate Average (%)” value [7, 12] was 97.84% and the “Cancer cell growth rate Average (%)” value [7, 13] was 101.17%. The “Cancer cell growth rate Average (%)” value ([7]; MIA PaCa-2, Example 1-2, Table 2, KN510 200 μM) was 25.89%, the “Cancer cell growth rate Average (%)” value ([7]; MIA PaCa-2, comparative example, Table 3, KN510 100 μM) was 69.73% and the “Cancer cell growth rate Average (%)” value ([7]; MIA PaCa-2, comparative example, Table 3, KN510 200 μM) was 35.32%.

`CSc1ccc2c(c1)N(CCC1CCCCN1C)c1ccccc1S2` (stereo not drawn) [KN714, 10-[2-(1-methyl-2-piperidyl)ethyl]-2-(methylthio)phenothiazine] was tested, and the inhibition at 5 µM [1, 14] was 2.15%, the inhibition at 10 µM [1, 15] was 35.4% and the “Cancer cell growth rate Average (%)” value ([1]; KN714 5 μM) was 97.85%. For the same molecule, the “Cancer cell growth rate Average (%)” value ([1]; KN714 10 μM) was 64.57%, the inhibition at 5 µM ([2]; Homo sapiens, SK-HEP1, KN714 5 μM, read-out: Inhibition rate of cancer cell growth (%) (Actual value)) was 17.6% and the inhibition at 10 µM ([2]; Homo sapiens, SK-HEP1, KN714 10 μM, read-out: Inhibition rate of cancer cell growth (%) (Actual value)) was 40.1%. For the same molecule, the “Cancer cell growth rate Average (%)” value ([2]; KN714 5 μM) was 82.37%, the “Cancer cell growth rate Average (%)” value ([2]; KN714 10 μM) was 59.94% and the inhibition at 5 µM [3, 14] was 9.36%. For the same molecule, the inhibition at 10 µM [3, 15] was 29.8%, the “Cancer cell growth rate Average (%)” value ([3]; KN714 5 μM) was 90.64% and the “Cancer cell growth rate Average (%)” value ([3]; KN714 10 μM) was 70.20%. For the same molecule, the inhibition at 5 µM ([4]; Homo sapiens, SF-295, KN714 5 μM, read-out: Inhibition rate of cancer cell growth (%) (Actual value)) was 16.5%, the inhibition at 10 µM ([4]; Homo sapiens, SF-295, KN714 10 μM, read-out: Inhibition rate of cancer cell growth (%) (Actual value)) was 75.5% and the “Cancer cell growth rate Average (%)” value ([4]; KN714 5 μM) was 83.54%. The “Cancer cell growth rate Average (%)” value ([4]; KN714 10 μM) was 24.47%, the inhibition at 5 µM [5, 14] was 24.5% and the inhibition at 10 µM [5, 15] was 44.7%. For the same molecule, the “Cancer cell growth rate Average (%)” value ([5]; KN714 5 μM) was 75.49%, the “Cancer cell growth rate Average (%)” value ([5]; KN714 10 μM) was 55.27% and the inhibition at 5 µM ([6]; Homo sapiens, U-251, KN714 5 μM, read-out: Inhibition rate of cancer cell growth (%) (Actual value)) was 40%. The inhibition at 10 µM ([6]; Homo sapiens, U-251, KN714 10 μM, read-out: Inhibition rate of cancer cell growth (%) (Actual value)) was 121%, the “Cancer cell growth rate Average (%)” value ([6]; KN714 5 μM) was 59.99% and the “Cancer cell growth rate Average (%)” value ([6]; KN714 10 μM) was −20.54%. For the same molecule, the inhibition at 5 µM ([7]; Homo sapiens, MIA PaCa-2, MIA PaCa-2 (Example 11), KN714 5 μM, read-out: Inhibition rate of cancer cell growth (%) (Actual value)) was 23.4%, the inhibition at 10 µM ([7]; Homo sapiens, MIA PaCa-2, MIA PaCa-2 (Example 11), KN714 10 μM, read-out: Inhibition rate of cancer cell growth (%) (Actual value)) was 106% and the inhibition at 5 µM ([7]; Homo sapiens, MIA PaCa-2, MIA PaCa-2, Example 1-3, Table 4, KN714 5 μM, read-out: Inhibition rate of cancer cell growth (%) (Actual value)) was 31.4%. The inhibition at 10 µM ([7]; Homo sapiens, MIA PaCa-2, MIA PaCa-2, Example 1-3, Table 4, KN714 10 μM, read-out: Inhibition rate of cancer cell growth (%) (Actual value)) was 105%, the GI50 ([7]; Homo sapiens, MIA PaCa-2) was 1.9 µM and the “Cancer cell growth rate Average (%)” value ([7]; MIA PaCa-2 (Example 11), KN714 5 μM) was 76.62%. The “Cancer cell growth rate Average (%)” value ([7]; MIA PaCa-2 (Example 11), KN714 10 μM) was −5.93%, the “Cancer cell growth rate Average (%)” value [7, 10] was −10.55% and the “Cancer cell growth rate Average (%)” value [7, 11] was 94.73%. For the same molecule, the “Cancer cell growth rate Average (%)” value [7, 12] was 95.13%, the “Cancer cell growth rate Average (%)” value [7, 13] was 90.56% and the “Cancer cell growth rate Average (%)” value ([7]; MIA PaCa-2, Conc. 10^−9M, Table 1) was 97.03%. For the same molecule, the “Cancer cell growth rate Average (%)” value ([7]; MIA PaCa-2, Conc. 10^−10M, Table 1) was 97.11%, the “Cancer cell growth rate Average (%)” value ([7]; MIA PaCa-2, Example 1-2, Table 2, KN714 5 μM) was 68.62% and the “Cancer cell growth rate Average (%)” value ([7]; MIA PaCa-2, Example 1-2, Table 2, KN714 10 μM) was −5.25%.

Source: patent US20250170140A1, “PHARMACEUTICAL COMPOSITION FOR PREVENTING OR TREATING CANCER COMPRISING CARNITINE ACYLCARNITINE CARRIER INHIBITOR AND PEROXISOMAL BETA OXIDATION INHIBITOR” (priority 2021, published 2025)
